In EPA's ToxValDB 9.5 (doi:10.2903/j.efsa.2011.2020):
Values after ≈ are worked out from the molar mass of the structure shown.

Tests used:
[1] = tested on: Oncorhynchus mykiss; settings: acute; duration: 96 hours; mortality
[2] = tested on: Rattus norvegicus; settings: for LD50: acute, mortality
[3] = tested on: Coturnix japonica; settings: acute, oral, mortality
[4] = tested on: Mus musculus
[5] = tested on: Apis mellifera; settings: acute; dermal; mortality
[6] = tested on: Aphidius rhopalosiphi; test: LR50; higher = less toxic; settings: not reported; mortality
[7] = tested on: Typhlodromus pyri; test: LR50; higher = less toxic; settings: not reported; mortality

NC(=O)Cc1cccc2ccccc12 [1-Naphthaleneacetamide]
LC50 [1]: 44 µg/mL (≈ 238 µM) | LD50 ([2]; oral, M): 1660 mg/kg-day | LD50 ([2]; oral): > 5050 mg/kg-day | NOAEL ([2]; chronic, duration: 2 years, organ weight): 43.8 mg/kg-day | NOAEL ([2]; developmental, development): 15 mg/kg-day | NOAEL ([2]; subchronic, duration: 90 days, oral, hematological): 10 mg/kg-day | NOAEL ([2]; subchronic, duration: 90 days, oral, organ weight): 5 mg/kg-day | LC50 ([3]; diet): 4370 mg/kg-day | LD50 [3]: > 2000 mg/kg-day | LD50 ([4]; acute, oral, F, mortality): 1930 mg/kg-day | NOAEL ([4]; chronic, duration: 18 months, other): 195 mg/kg-day | LD50 [5]: > 100 µg/piece | LR50 [6]: > 40 g/ha | LR50 [7]: > 40 g/ha
